From patent publication US20120171123A1, “USES AND COMPOSITIONS FOR TREATMENT OF RHEUMATOID ARTHRITIS” (priority 2006, published 2012)
“And” between values parts separate entries of the source, which are not always exact repeats. Equal values may be shown once.

System: patients with active rheumatoid arthritis
Assay: Study A: EULAR response (moderate/good)
Format: in vivo, human
Details: for Good EULAR response (%) / Moderate EULAR response (%): LOCF
Description: In one embodiment, the invention provides a method for determining the efficacy of a TNFα inhibitor, including a human TNFα antibody, for treating RA in a subject, using the EULAR response of a subject or patient population. European League Against Rheumatism (EULAR) Response Criteria uses a Disease Activity Score (DAS) for defining response. To be classified as responders, patients should have a significant change in DAS and also low current disease activity. Response is defined as both: (a) change in disease activity from baseline and (b) the level of disease activity reached during follow-up. Criteria used to define DAS include: Ritchie articular index, swollen joint count (44-joint count), erythrocyte sedimentation rate, and […]. A modified version of the DAS criteria, DAS28, uses a 28-joint count for swollen and tender joints. Response is defined as a combination of a significant change from baseline and the level of disease activity attained. Good response is defined as a significant decrease in DAS (>1.2) and a low level of disease activity (< or =2.4). Non-response is defined as a decrease < or =0.6, or a decrease >0.6 and < or =1.2 with an attained DAS >3.7. Any other scores are regarded as moderate responses. Thus, three categories are defined: good, moderate, and non-responders. For details of EULAR criteria see Van Gestel et al. (1996) 39(1):34-40, incorporated by reference herein.
The study design included a 12 week open label treatment period followed by a continuation period examining safety and efficacy. […] The main inclusion criteria for the study were the following: males and females ≧18 years; rheumatoid arthritis (RA; defined by ACR criteria) for ≧3 months; unsatisfactory response (or intolerance) to at least one prior DMARD; and patients with active RA (DAS28≧3.2). Baseline demographics and disease severity is shown below in Table 1:
Efficacy of adalimumab treatment was determined by examining signs and symptoms of the patients. Various assays were used to determine efficacy, including ACR response, EULAR response, TJC and SJC count, and DAS28.
The objective of this study was to evaluate the impact of prior biologic therapies, in particular TNF-antagonists etanercept (ETA) and infliximab (INF), on key efficacy parameters of adalimumab therapy in patients with long-standing RA in clinical practice. To evaluate the impact of prior biological therapies, patients with moderate to severe RA enrolled at 450 sites in 11 European countries plus Australia (Study A). Patients with moderate to severe RA and an inadequate response to prior DMARD therapies were enrolled in a 12-week open-label study with an optional extension phase. […] Patients with previous biologic treatment must have received the last administration at least 8 weeks before enrollment Routine safety and efficacy data were collected at weeks 2, 6, and 12, and every 8 weeks in the extension phase. Efficacy parameters included ACR20, ACR50, ACR70, EULAR Response, HAQ, tender and swollen joint count (TJC28/SJC28), and DAS28. […] For this interim analysis, efficacy outcomes were evaluated after 12 weeks of therapy per the number and type of prior biologics used: None, any (ETA, INF, anakinra), ETA only, INF only, or ETA and INF but not anakinra.
Patients with long-standing, moderate to severe RA were enrolled in Study A at 450 sites in 12 different countries. The study design for Study A is outlined in FIG. 21. […] Previous treatment with other biologics was allowed up to 8 weeks before enrollment. Patients met the following inclusion criteria: Age ≧18 years; RA (defined by American College of Rheumatology criteria) for ≧3 months; active, moderate to severe RA (Disease Activity Score (DAS28)≧3.2); unsatisfactory response or intolerance to at least one prior DMARD, including biologics. Efficacy assessments were performed at weeks 0 (baseline), 2, 6, and 12. […]

[1] = Week 12, No prior ETA and/or INF (n=5711)
[2] = Week 12, Prior ETA and/or INF (n=899)
[3] = Week 12, concomitant Cq/Hcq + mtx (n=153)
[4] = Week 12, concomitant LEF only (n=557)
[5] = Week 12, concomitant MTX + LEF (n=123)
[6] = Week 12, concomitant MTX only (n=1561)
[7] = Week 12, concomitant QC/HQC (n=85)
[8] = Week 12, concomitant SSZ only (n=89)
[9] = Wk 12, concomitant MTX Im 15 mg (N=76), no other DMARD
[10] = Wk 12, concomitant MTX Iv 15 mg (N=23), no other DMARD
[11] = Wk 12, concomitant MTX Sc 15 mg (N=37), no other DMARD
[12] = Wk 12, concomitant MTX oral 15 mg (N=405), no other DMARD
[13] = Wk 12, concomitant MTX oral ≦7.5 (N=127), no other DMARD
[14] = Wk 12, concomitant MTX oral ≧20 mg (N=216), no other DMARD
[15] = week 12, concomitant hydroxychloroquine exclusively
[16] = week 12, concomitant leflunomide exclusively
[17] = week 12, concomitant mtx exclusively
[18] = week 12, concomitant sulfasalazine exclusively
[19] = week 12, prior biologic: ETA + INF

adalimumab: human anti-TNF mAb (HUMIRA, Abbott Laboratories), described in U.S. Pat. No. 6,090,382 as D2E7
Good EULAR response (12 weeks, N=2008 analysis): 34%
Moderate EULAR response (12 weeks, N=2008 analysis): 82%
Moderate EULAR response (12 weeks, no prior response to ETA and INF): 50%
Good EULAR response (%) (Week 12): 32%
Moderate EULAR response (%) (Week 12): 81%
Good EULAR [1]: 35 % of patients
Moderate EULAR [1]: 84 % of patients
Good EULAR [2]: 23 % of patients
Moderate EULAR [2]: 76 % of patients
Good EULAR [3]: 40 % of patients
Moderate EULAR [3]: 88 % of patients
Good EULAR response [4]: 31%
Moderate EULAR response [4]: 79%
Good EULAR response [5]: 29%
Moderate EULAR response [5]: 86%
Good EULAR response (Week 12, concomitant MTX + SSZ): 41%
Moderate EULAR response (Week 12, concomitant MTX + SSZ): 89%
Good EULAR response [6]: 39%
Moderate EULAR response [6]: 84%
Good EULAR response [7]: 25%
Moderate EULAR response [7]: 85%
Good EULAR response [8]: 39%
Moderate EULAR response [8]: 75%
Good EULAR response (%) (Week 28): 37%
Moderate EULAR response (%) (Week 28): 81%
Good EULAR response (%) (Week 36): 37%
Moderate EULAR response (%) (Week 36): 82%
Good EULAR response (%) (Week 52): 38%
Moderate EULAR response (%) (Week 52): 82%
Good EULAR response [9]: 38%
Moderate EULAR response [9]: 80%
Good EULAR response [10]: 41%
Moderate EULAR response [10]: 86%
Good EULAR response [11]: 25%
Moderate EULAR response [11]: 86%
Good EULAR response [12]: 39%
Moderate EULAR response [12]: 86%
Good EULAR response [13]: 36%
Moderate EULAR response [13]: 84%
Good EULAR response [14]: 50%
Moderate EULAR response [14]: 89%
at least a Moderate EULAR response (week 2, French patients): 64%
Good EULAR response (week 12, 1 prior biologic): 25%
Moderate EULAR response (week 12, 1 prior biologic): 78%
Good EULAR response (week 12, 2 prior biologics): 11%
Moderate EULAR response (week 12, 2 prior biologics): 76%
Good EULAR response (week 12, 3 prior biologics): 8%
Moderate EULAR response (week 12, 3 prior biologics): 75%
at least a Moderate EULAR response (week 12, French patients): 80%
Good EULAR response (week 12, all patients): 34%
Moderate EULAR response (week 12, all patients): 83%
Good EULAR [15]: 25 % of patients
Moderate EULAR [15]: 75 % of patients
Good EULAR [16]: 31 % of patients
Moderate EULAR [16]: 79 % of patients
Good EULAR [17]: 39 % of patients
Moderate EULAR [17]: 84 % of patients
Good EULAR [18]: 31 % of patients
Moderate EULAR [18]: 79 % of patients
Good EULAR response (week 12, no prior biologic): 34%
Moderate EULAR response (week 12, no prior biologic): 81%
Good EULAR (week 12, prior anakinra): 36 % of patients
Moderate EULAR (week 12, prior anakinra): 75 % of patients
Good EULAR (week 12, prior biologic (any)): 22 % of patients
Moderate EULAR (week 12, prior biologic (any)): 77 % of patients
Good EULAR response (week 12, prior etanercept only): 25% and 24%
Moderate EULAR response (week 12, prior etanercept only): 76%
Good EULAR response (week 12, prior infliximab only): 22%
Moderate EULAR response (week 12, prior infliximab only): 80%
Good EULAR (week 12, prior biologic: Any): 23 % of patients
Moderate EULAR (week 12, prior biologic: Any): 75 % of patients
Good EULAR (week 12, prior biologic: ETA): 21 % of patients
Moderate EULAR (week 12, prior biologic: ETA): 74 % of patients
Good EULAR [19]: 12 % of patients
Moderate EULAR [19]: 61 % of patients
Good EULAR (week 12, prior biologic: INF): 25 % of patients
Moderate EULAR (week 12, prior biologic: INF): 78 % of patients
Good EULAR (week 12, prior biologic: None): 39 % of patients
Moderate EULAR (week 12, prior biologic: None): 82 % of patients
